Measured values as given in the METLIN SMRT retention time set (Domingo-Almenara et al. 2019).

Test: gradient 5% acetonitrile 3 min, to 50% in 2 min, to 85% in 15 min, held 3 min, 100 µL/min
Conditions: column: Zorbax Extend-C18 2.1 x 50 mm; eluents: water / acetonitrile, 0.1% formic acid
Summary of the method: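 Standards, all pure, were combined into mixtures of ~100 molecules and run at 100 μL/min on a Zorbax Extend-C18 column (2.1 × 50 mm, 1.8 μm) with water and acetonitrile, each containing 0.1% formic acid. A coupled quadrupole time-of-flight mass spectrometer operated in positive and negative ionization mode. Retention time values come from computationally picked adduct peaks, each inspected manually.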

SMILES | RP-LC retention time [s]
CCCc1cnc2c(c1SCC(=O)N(CC)CC)c(=O)n(C)c(=O)n2C | 892
COc1ccccc1-c1coc2cc(OC(=O)c3cccs3)ccc2c1=O | 992
CC1CCN(C(=O)CS(=O)Cc2cnn(-c3ccccc3)c2-n2cccc2)CC1 (stereo not drawn) | 828
CCc1cccc(C)c1Nc1c(-c2ccc(F)cc2)nc2cnccn12 | 1010
Cc1ncc2c(n1)C[C@@H]1CC[C@H]2N1C(=O)c1ccccn1 | 603
O=C(c1cn2ccnc(-c3ccccc3)c2n1)N1CCN(c2ncccn2)CC1 | 702
Cc1ccc(CNC(=O)C2CCN(c3ccc(SCc4ccccc4)nn3)CC2)cc1 | 821
CSc1ccc(-c2nc3cnccn3c2Nc2ccc(C(=O)NC(C)C)cc2)cc1 | 745
COc1ccccc1NC(=O)NC1CCN(c2ccc(F)c(C)c2)C1=O (stereo not drawn) | 833
Cc1cc(NC(=O)CCCS(=O)(=O)c2ccc(Cl)cc2)n(C)n1 | 648
O=C(Cn1nc(C(=O)N2CCCC2)c2ccccc21)NCc1ccc2c(c1)OCO2 | 757
Cc1cccc(-c2noc(C3CCCN3S(=O)(=O)c3cc(C)ccc3C)n2)c1 (stereo not drawn) | 1260
O=C(CN1CCN(Cc2ccc(F)cc2Cl)C1=O)N1CCN(C2CCCCC2)CC1 | 644
COc1ccccc1CNC(=O)c1ccc2ncnc(N3CCCC3)c2c1 | 640
CCOC(=O)C1=C(C)NC2=C(C(=O)c3ccccc32)C1c1ccccc1OCC (stereo not drawn) | 961
Clc1ccc(OCc2nnc3sc(-c4ccc5ccccc5n4)nn23)cc1 | 1210
O=C(C1CCCN(c2nn3c(=O)c4c(nc3s2)CCCC4)C1)N1CCN(c2ccccc2F)CC1 (stereo not drawn) | 868
O=S(=O)(c1cccn2cnnc12)N(Cc1ccc(F)cc1)c1ccc(F)c(F)c1 | 887
Cc1nn(CC(=O)NC2CCCCCC2)c(=O)c2c(C)n(-c3ccccc3)nc12 | 807
COc1ccc(-c2c(C)noc2NC(C)=O)cc1S(=O)(=O)N1CCN(C(=O)c2ccco2)CC1 | 670
Cc1scc2nc(C3CCC3)nc(N3CCC(C(=O)N4CCN(c5ccccc5F)CC4)CC3)c12 | 838
Cc1cccc(Cl)c1NC(=O)/C=C/c1ccccc1 | 850

SMILES | RP-LC retention time [s]
CN1[C@@H]2CC[C@H]1CC(OC(=O)C1C=Nc3ccccc31)C2 (stereo partly drawn) | 656
Cc1cc(S(=O)(=O)N2[C@H]3CC[C@@H]2c2cnc(-c4ccccc4)nc2C3)ccc1F | 1090
CC1Oc2ccc(-c3csc(NC(=O)COc4ccc(Cl)cc4)n3)cc2NC1=O (stereo not drawn) | 966
CCN(CC)C(=O)c1ccc2c(c1)N(CC(=O)Nc1ccc3c(c1)OCO3)C(=O)C1CCCCN21 (stereo not drawn) | 808
Cc1cc(C)cc(NS(=O)(=O)c2cc3n(c2)CCCNC3=O)c1 | 678
Cn1cc(-c2nc(C(=O)Nc3ccc(F)cc3)cs2)c2cccnc21 | 973
CCCS(=O)(=O)NCc1ccc2c(c1)CCN2C(=O)CC(C)C | 862
CSc1cccc(NC(=O)N2CCc3nc(CNC(=O)C4CCC4)n(C)c3C2)c1 | 632
CCOc1ccc(-n2c(CN3CCN(C(=O)NC4CCCC4)CC3)nc3cccnc32)cc1 | 636
Cn1c(=O)c(=O)n(C)c2cc(N3CCCCC3)c(NC(=O)C3CCCCC3)cc21 | 940
Cn1cccc(C(=O)NCCCn2cccc2)c1=O | 644
COc1cc(-c2ccccc2)nc2ccc(NS(=O)(=O)c3ccc(NC(C)=O)cc3)cc12 | 653
Cc1ccc(-c2nnc(Cc3nc(-c4cccc(Br)c4)no3)o2)cc1C | 1270
CCCNC(=O)C1CCN(c2ccc(SCC(=O)Nc3ccc(OC)c(Cl)c3)nn2)CC1 | 654
COc1ccc(C(=O)N2CCC(c3cc(N)on3)CC2)c(OC)c1 | 658
COc1ccc(N2CC(c3noc(-c4ccccc4F)n3)CC2=O)cc1OC (stereo not drawn) | 818
CCN(CC)c1ncnc2c(-c3ccccc3)cn(CC(=O)N3CCCC3)c12 | 674
Cc1nc(-c2cc(S(=O)(=O)Nc3cccc(Cl)c3C)c(C)s2)cs1 | 1120
Cc1ccc(S(=O)(=O)NC2CCN(C(=O)C3CC(=O)N(C4CCCC4)C3)CC2)cc1 (stereo not drawn) | 727
Cc1ccc(CC(=O)N2CCc3c(c(C(=O)N4CCCC(C(=O)NC5CC5)C4)nn3C)C2)cc1 (stereo not drawn) | 681
COc1ccc(N2CCN(C(=O)c3cn(-c4ccc(NC(C)=O)cn4)cn3)CC2)cc1 | 617
CCSc1nc2ccc(NS(=O)(=O)c3cc(C)ccc3C)cc2s1 | 1070

SMILES | RP-LC retention time [s]
O=C(NCCc1csc(C2CCCN(C(=O)C3CCCC3)C2)n1)C1CCC1 (stereo not drawn) | 718
O=C(CCn1cnc2cc(-c3noc(-c4cccs4)n3)ccc21)N1CCOCC1 | 672
COc1cc(OC)cc(C(=O)N2CCC3(CC2)N=C(c2ccc(Cl)cc2)NO3)c1 | 893
Cn1nc(-c2nc(C3CC3)no2)c2c1CCN(C(=O)c1cc(F)ccc1Cl)C2 | 842
CCn1cc(Br)c(C(=O)Nc2ccc(F)c(Cl)c2)n1 | 1020
CC(Oc1cccc(Cl)c1)C(=O)N1CCCN(c2cc(=O)n(C)c(=O)n2C)CC1 (stereo not drawn) | 707
O=C(Nc1ccccc1NC(=O)c1ccc(Br)o1)c1ccsc1 | 806
CCn1cnc2ccc(-c3noc(-c4ccccc4)n3)cc21 | 758
CCCNC(=O)N1CCc2c(c(-c3nc(-c4ccccc4)no3)nn2C)C1 | 825
Cc1ccccc1CNC(=O)CC1CCN(C(=O)c2[nH]c(C)c(C(=O)OC(C)C)c2C)CC1 | 853
CC(C)n1cc(C2=CCN(S(=O)(=O)c3cccc(C#N)c3)CC2)c2cccnc21 | 995
Cc1ccc2[nH]cc(CCN3CC(C(=O)Nc4cccc(C)c4C)CC3=O)c2c1 (stereo not drawn) | 820
CCCc1ccc(S(=O)(=O)N2CCc3c(c(-c4nnc(-c5ccccc5F)o4)nn3C)C2)cc1 | 1070
CC(C)(C)c1cc(C(=O)Nc2cc(F)cc(F)c2)nc2ccnn12 | 1360
CC(C)N1CCc2c(sc(NC(=O)c3ccc([N+](=O)[O-])s3)c2C(N)=O)C1 | 573
CCCNC(=O)C1CCN(c2cc(SCC(=O)Nc3ccc(C(=O)OCC)cc3)ncn2)CC1 | 781
O=C1Nc2cc(C(=O)N3CCCCC3)ccc2N2CCCCC12 (stereo not drawn) | 762
CCn1c(=O)c2cc(C(=O)Nc3ccc(OC)c(OC)c3)nn2c2ccccc21 | 837
Cc1cc(C)n(-c2ccnc(N3CCC(C(=O)N4CCC(C)CC4)CC3)n2)n1 | 920
CC(C)NC(=O)N1CC=C(c2cn(C(C)C)c3ncccc23)CC1 | 632
CCOC(=O)C1C(=O)NC(N2CCN(Cc3ccccc3)CC2)=NC1c1ccco1 (stereo not drawn) | 578
C=CCNC(=O)COc1cccc2c(=O)n(CC=C)ccc12 | 700

SMILES | RP-LC retention time [s]
CC(C)OCCCNC(=O)CCc1nnc2c3cc(-c4ccccc4)nn3ccn12 | 690
Cc1ccc(NC(=O)C2CCCN2S(=O)(=O)c2cc3c(cc2C)NC(=O)CO3)cc1Cl (stereo not drawn) | 791
CCOC(=O)c1sc(NC(=O)c2cccs2)nc1C | 892
CCOC(=O)c1sc(NC(=O)C2CCCN(S(C)(=O)=O)C2)nc1-c1ccccc1 (stereo not drawn) | 863
CSc1ncccc1C(=O)Nc1cccc(OCc2nnc(-c3ccccc3)o2)c1 | 908
Clc1cccc(-c2nnc(Cc3nc(-c4ccc5c(c4)OCO5)no3)o2)c1 | 1020
COCCc1nnc(NC(=O)c2ccc3c(c2)CCCC3)o1 | 702
O=C(NC1CCN(c2cc(-c3cccnc3)[nH]n2)CC1)c1ccc(F)c(Cl)c1 | 643
O=C(N[C@@H]1CN(c2ncccn2)C[C@H]1CO)C1(c2ccccc2)CC1 | 654
CCc1nc2c(NC(=O)Cc3cccnc3)cccn2n1 | 556
CC(C)NC(=O)NC1CCN(c2nc3ccccc3n(C)c2=O)CC1 | 562
CCOC(=O)c1c(C)[nH]c(C(=O)N2CCCC(C(=O)NCCC(C)C)C2)c1C (stereo not drawn) | 798
Cc1noc(C)c1CC(=O)N1CCc2c(c(-c3nncn3C)nn2C)C1 | 591
CC1CCN(S(=O)(=O)c2ccc(-c3nnc(C(=O)NCCCc4ccccc4)o3)cc2)CC1 | 1150
Cc1ccccc1NC(=O)NC1CCN(c2ccc(F)cc2)C1=O (stereo not drawn) | 792
O=C(CCCn1c(=O)c2cccn2c2ccc(Br)cc21)NCc1ccc2c(c1)OCO2 | 915
Cc1ccccc1S(=O)(=O)N1CCC(CCC(=O)NC2CC2)CC1 | 791
O=C(NCc1noc(-c2ccco2)n1)c1coc(C2CC2)n1 | 736
COc1ccc2c(c1)CCc1sc(NC(=O)c3ccc(Br)cc3)nc1-2 | 1190
CCOc1cc(=O)c(C(=O)N2CCC(C(N)=O)CC2)nn1-c1ccc(F)c(F)c1 | 625
Cc1cc(=O)oc2cc(OCC(O)CN3CCN(c4ccccn4)CC3)ccc12 (stereo not drawn) | 574
Cc1nc(-c2csc(S(=O)(=O)N3CCC(C(=O)N4CCCCC4)CC3)c2)no1 | 818
